Results from patent US12186361B2, “Method and formulation for inhalation” (Monash University, priority 2011, dated 2025).

Experiments:
[1] = Oxytocin stability: LC/MS assay content recovered after TSI experiments; format: physicochemical; conditions: all TSI stages, capsules and inhalation devices, after spray drying at 70° C. outlet
Protocol: All five capsules were activated into the same TSI. The used capsules and the inhalers were then washed with Milli-Q water into a 100 mL volumetric flask and made up to volume. This was called the ‘residual’ stage. The parts that made up Stage 1 (parts A, B, C and D) were washed into a 200 mL volumetric flask and the parts that made up Stage 2 (parts E, F, G and H) were washed into a 50 mL volumetric flask with Milli-Q water and called ‘stage 1’ and ‘stage 2’ respectively. The amounts of oxytocin in each stage of the TSI were determined by LC/MS assay. The fine particle fraction (FPF) was calculated as the amount of powder that had reached stage 2 of the TSI apparatus divided by total amount of drug that was assayed. This test was the most important measure as it can determine whether a powder containing oxytocin can be formulated with suitable aerosol deposition, and consequent absorption from the lung.
Peptides can potentially be denatured due to extreme heat. From the tests that were conducted in this study, the only indication as to oxytocin stability was the LC/MS assay content following the TSI experiments.

[2] = system: uterine contraction (uterine EMG activity); assay: In vivo uterine EMG activity after oxytocin delivery in post-partum ewes (Example 5); set-up: species or system sheep; conditions: for delay from oxytocin administration to uterine contractile response (first EMG burst): post-partum ewes, n=5, average
Description: On day 135 gestational age, pregnant ewes (n=5) were anaesthetised with thiopentone in preparation for surgery. Isuflorane (2.5% in oxygen) was used to maintain anaesthesia and depomycin, procaine penicillin and dihydrostreptomycin were given for pain relief and to reduce the risk of infection. Each ewe was shaved and a 10 cm incision was made in the abdominal skin at the midline below the navel to expose the uterine wall, with care taken to avoid large blood vessels.
Three sterile stainless steel wires for measuring electromyographical (EMG) activity (0.07 mm diameter, inside a 2 mm catheter) were embedded in the smooth muscle layer of the myometrium surrounding the womb and held there by two stitches. The electrodes were passed through a catheter and out of the ewe via a small incision (2 cm) through the right flank. A catheter was inserted in the right jugular to allow for blood samples and to induce labour. Ewes were returned to metabolic cages and given 3-5 days to recover from surgery.
Labour was induced with two 5 ml intravenous injections of dexamethasone (consisting of 5 mg of dexamethasone phosphate and 10 mg of dexamethasone phenylpropionate) 24 hours apart. Labour occurred 54±2 hours after the first dexamethasone injection.
Oxytocin administrations, as detailed above, were performed within 15 hours of delivery. Each sheep received an intra-tracheal dose of dry powder oxytocin formulation, an intra-tracheal instillation of oxytocin in solution and an intramuscular injection of oxytocin. There was at least a one and a half hour washout period between each treatment.
For intra-tracheal administration, an endoscope was passed through the nasal passage into the trachea and positioned near the first bronchial bifurcation, where either a 1 mL aliquot of oxytocin in solution (10 IU) was released or 10 mg (average) of dry powder was delivered through a modified PennCentury powder delivery device.
The dry powder formulation comprised a spray dried composition, as described in example 1. This powder contained 13 units of oxytocin per mg by mass, co-spray dried with equal proportions by mass of mannitol, glycine and leucine.
During this procedure, bronchoscope video images were captured using a Linvatec IM3301 Pal Video Camera attached to an endoscope (Pentax FG-16X), which was saved as a digital file onto a computer using Video Capture Software.
A cyberamp 380 in conjunction with MACLAB hardware (400 Hz Sample rate) and Chart 4 software (10V Input range) was used to display and record action potential originating from smooth muscle cells within the uterus. The cyberamp 380 used the AI401probe with positive input set at AC and negative input set at Ground. The AC cut off was 10 Hz and the prefilter gain set at 100 mV. The low pass filter was set at 300 Hz, the notch filter set to off, the output gain set to 5 and the total gain left at 500. Two way repeated measure ANOVA was performed to determine the statistical significance of our data.

[3] = pulmonary versus IM delivery and post-partum activity

- oxytocin recovered of the initial capsule's dose [1]: 90.23±5.41%
SMILES: CC[C@H](C)[C@@H]1NC(=O)[C@H](Cc2ccc(O)cc2)NC(=O)[C@@H](N)CSSC[C@@H](C(=O)N2CCC[C@H]2C(=O)N[C@@H](CC(C)C)C(=O)NCC(N)=O)NC(=O)[C@H](CC(N)=O)NC(=O)[C@H](CCC(N)=O)NC1=O [oxytocin]
- total duration of EMG activity ([2]; IM compared to airway delivery and normal post-partum activity): significantly longer
- delay from oxytocin administration to uterine contractile response (first EMG burst) ([2]; IM delivery): approximately 250 seconds
- delay from oxytocin administration to uterine contractile response (first EMG burst) ([2]; pulmonary (intra-tracheal) delivery): faster time of onset
- length of the initial burst of EMG activity [2, 3]: No differences
- number of bursts over the first 30 minutes following the initial burst [2, 3]: nor was there a difference
